Biological target: T1, Adenosine receptor A1 (Cavia porcellus, UniProt P47745)
T1 sequence (P47745 whole entry): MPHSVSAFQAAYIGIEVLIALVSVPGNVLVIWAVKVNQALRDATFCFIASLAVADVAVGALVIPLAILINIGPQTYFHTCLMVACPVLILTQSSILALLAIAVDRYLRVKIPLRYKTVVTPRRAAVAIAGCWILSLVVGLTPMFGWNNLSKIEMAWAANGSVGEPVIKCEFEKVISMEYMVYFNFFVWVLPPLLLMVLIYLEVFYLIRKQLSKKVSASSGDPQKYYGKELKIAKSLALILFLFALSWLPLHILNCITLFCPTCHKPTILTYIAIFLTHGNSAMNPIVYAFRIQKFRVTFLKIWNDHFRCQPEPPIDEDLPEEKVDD
Experiment: Tested for adenosine A1 receptor agonistic activity by determining concentration needed to prolong the stimulus-QRS interval by 50% of the maximum response

Row | EC50 [µM] | SMILES
1 | 49 | Nc1nc(N=NCc2ccccc2Cl)nc2c1ncn2C1O[C@H](CO)[C@@H](O)[C@H]1O (some centres not stated)
2 | 83.2 | Nc1nc(N=NCc2ccccc2)nc2c1ncn2C1O[C@H](CO)[C@@H](O)[C@H]1O (some centres not stated)
3 | 41.7 | Nc1nc(N=NCc2cccs2)nc2c1ncn2C1O[C@H](CO)[C@@H](O)[C@H]1O (some centres not stated)
4 | 41.7 | Nc1nc(N=NCc2ccccn2)nc2c1ncn2C1O[C@H](CO)[C@@H](O)[C@H]1O (some centres not stated)
5 | 83.2 | Nc1nc(N=NCCc2ccccc2)nc2c1ncn2C1O[C@H](CO)[C@@H](O)[C@H]1O (some centres not stated)
6 | 49 | Nc1nc(N=NCc2cccc(Cl)c2)nc2c1ncn2C1O[C@H](CO)[C@@H](O)[C@H]1O (some centres not stated)
7 | 41.7 | Nc1nc(N=NCc2ccccc2F)nc2c1ncn2C1O[C@H](CO)[C@@H](O)[C@H]1O (some centres not stated)
